Results from patent US10463671B2, “Combination therapy for treating cancer” (Epizyme, Inc., priority 2013, dated 2019).

System: glucocorticoid signaling genes in RL cells
Assay: RT2 Glucocorticoid Signaling PCR array
Assay type: cell-based
Conditions: 4 days, 1 μM Cpd44, Pred 10-fold below 4-day IC50
Procedure: Gene expression was normalized to array's B2M and fold change compared to DMSO was calculated using the ΔΔCt method.

CCN(c1cc(-c2ccc(CN3CCOCC3)cc2)cc(C(=O)NCc2c(C)cc(C)[nH]c2=O)c1C)C1CCOCC1 [Compound 44]
ACTB Ct value: 15.664
ACTB ΔCT (B2M): −3.694
ADARB1 Ct value: 26.650
ADARB1 ΔCT (B2M): 7.292
AFF1 Ct value: 26.820
AFF1 ΔCT (B2M): 7.462
AK2 Ct value: 20.270
AK2 ΔCT (B2M): 0.912
AMPD3 Ct value: 27.191
AMPD3 ΔCT (B2M): 7.833
ANGPTL4 Ct value: 29.820
ANGPTL4 ΔCT (B2M): 10.462
ANXA4 Ct value: 24.395
ANXA4 ΔCT (B2M): 5.037
ARID5B Ct value: 27.333
ARID5B ΔCT (B2M): 7.975
ASPH Ct value: 23.466
ASPH ΔCT (B2M): 4.108
ATF4 Ct value: 18.269
ATF4 ΔCT (B2M): −1.089
B2M Ct value: 19.358
B2M ΔCT (B2M): 0.000
BCL6 Ct value: 20.289
BCL6 ΔCT (B2M): 0.931
CEBPA Ct value: 36.511
CEBPA ΔCT (B2M): 17.153
CEBPB Ct value: 23.765
CEBPB ΔCT (B2M): 4.407
COL4A2 Ct value: 31.782
COL4A2 ΔCT (B2M): 12.424
CREB1 Ct value: 23.217
CREB1 ΔCT (B2M): 3.859
CREB3 Ct value: 24.178
CREB3L4 Ct value: 23.500
CREB3L4 ΔCT (B2M): 4.142
CREB3 ΔCT (B2M): 4.820
CYB561 Ct value: 38.452
CYB561 ΔCT (B2M): 19.094
DDIT4 Ct value: 22.679
DDIT4 ΔCT (B2M): 3.321
DUSP1 Ct value: 25.422
DUSP1 ΔCT (B2M): 6.064
EDN1 Ct value: 31.815
EDN1 ΔCT (B2M): 12.457
EHD3 Ct value: 24.572
EHD3 ΔCT (B2M): 5.214
ERRFI1 Ct value: 31.705
ERRFI1 ΔCT (B2M): 12.347
FKBP5 Ct value: 21.757
FKBP5 ΔCT (B2M): 2.399
FOSL2 Ct value: 30.761
FOSL2 ΔCT (B2M): 11.403
GAPDH Ct value: 15.720
GAPDH ΔCT (B2M): −3.638
GDPD1 Ct value: 27.394
GDPD1 ΔCT (B2M): 8.036
GHRHR Ct value: 37.546
GHRHR ΔCT (B2M): 18.188
GLUL Ct value: 28.738
GLUL ΔCT (B2M): 9.380
GOT1 Ct value: 22.584
GOT1 ΔCT (B2M): 3.226
H6PD Ct value: 25.012
H6PD ΔCT (B2M): 5.654
HNRPLL Ct value: 22.844
HNRPLL ΔCT (B2M): 3.486
HPRT1 Ct value: 22.013
HPRT1 ΔCT (B2M): 2.655
IL1RN Ct value: 28.405
IL1RN ΔCT (B2M): 9.047
IL6R Ct value: 29.246
IL6R ΔCT (B2M): 9.888
IL10 Ct value: 31.498
IL10 ΔCT (B2M): 12.140
KLF13 Ct value: 22.854
KLF13 ΔCT (B2M): 3.496
MERTK Ct value: 30.691
MERTK ΔCT (B2M): 11.333
MT1E Ct value: 34.215
MT1E ΔCT (B2M): 14.857
MT2A Ct value: 24.279
MT2A ΔCT (B2M): 4.921
NFKBIA Ct value: 23.710
NFKBIA ΔCT (B2M): 4.352
NR3C1 Ct value: 22.616
NR3C1 ΔCT (B2M): 3.258
PDCD7 Ct value: 24.406
PDCD7 ΔCT (B2M): 5.048
PDP1 Ct value: 25.387
PDP1 ΔCT (B2M): 6.029
PER1 Ct value: 25.492
PER1 ΔCT (B2M): 6.134
PER2 Ct value: 24.378
PER2 ΔCT (B2M): 5.020
PIK3R1 Ct value: 23.908
PIK3R1 ΔCT (B2M): 4.550
PLEKHF1 Ct value: 30.520
PLEKHF1 ΔCT (B2M): 11.162
POU2F1 Ct value: 24.243
POU2F1 ΔCT (B2M): 4.885
POU2F2 Ct value: 21.769
POU2F2 ΔCT (B2M): 2.411
RASA3 Ct value: 26.279
RASA3 ΔCT (B2M): 6.921
RGS2 Ct value: 25.721
RGS2 ΔCT (B2M): 6.363
RPLP0 Ct value: 14.837
RPLP0 ΔCT (B2M): −4.521
SESN1 Ct value: 24.425
SESN1 ΔCT (B2M): 5.067
SGK1 Ct value: 26.262
SGK1 ΔCT (B2M): 6.904
SLC19A2 Ct value: 25.536
SLC19A2 ΔCT (B2M): 6.178
SNTA1 Ct value: 25.554
SNTA1 ΔCT (B2M): 6.196
SPHK1 Ct value: 31.119
SPHK1 ΔCT (B2M): 11.761
SPSB1 Ct value: 26.285
SPSB1 ΔCT (B2M): 6.927
STAT5A Ct value: 22.769
STAT5A ΔCT (B2M): 3.411
STAT5B Ct value: 22.683
STAT5B ΔCT (B2M): 3.325
TBL1XR1 Ct value: 21.663
TBL1XR1 ΔCT (B2M): 2.305
TNF Ct value: 24.712
TNF ΔCT (B2M): 5.354
TNFAIP3 Ct value: 26.896
TNFAIP3 ΔCT (B2M): 7.538
TSC22D3 Ct value: 23.300
TSC22D3 ΔCT (B2M): 3.942
USP2 Ct value: 21.420
USP2 ΔCT (B2M): 2.062
USP54 Ct value: 26.364
USP54 ΔCT (B2M): 7.006
VDR Ct value: 27.736
VDR ΔCT (B2M): 8.378
ZFP36 Ct value: 24.374
ZFP36 ΔCT (B2M): 5.016
ZHX3 Ct value: 29.785
ZHX3 ΔCT (B2M): 10.427
ZNF281 Ct value: 23.667
ZNF281 ΔCT (B2M): 4.309
AFF1 ΔΔCT (vs DMSO): −2.006
ATF4 ΔΔCT (vs DMSO): 0.003
CEBPB ΔΔCT (vs DMSO): −0.004
CREB3L4 ΔΔCT (vs DMSO): −0.760
HNRPLL ΔΔCT (vs DMSO): 0.309
LOX ΔΔCT (vs DMSO): −0.580
NFKBIA ΔΔCT (vs DMSO): 0.854
NR3C1 ΔΔCT (vs DMSO): 0.067
PDCD7 ΔΔCT (vs DMSO): 0.006
PLEKHF1 ΔΔCT (vs DMSO): 0.050
POU2F1 ΔΔCT (vs DMSO): −0.027
POU2F2 ΔΔCT (vs DMSO): −0.584
RASA3 ΔΔCT (vs DMSO): −0.009
SNTA1 ΔΔCT (vs DMSO): 0.040
STAT5A ΔΔCT (vs DMSO): 0.001
STAT5B ΔΔCT (vs DMSO): −0.094
ZFP36 ΔΔCT (vs DMSO): −0.036
ZNF281 ΔΔCT (vs DMSO): 0.046
